Results reported in patent US12172946B2, “Compound containing diphenylmethane structure and use thereof” (GUANGZHOU TROJAN PHARMATEC LTD., priority 2019, dated 2024).

Experiment: solubility of the compound in common solvents
Type: physicochemical
Settings: 25-30° C.; for solubility in DMF: N,N-dimethylformamide; for solubility in i-PrOAc: isopropyl acetate; for solubility in MTBE: methyl tert-butyl ether
Procedure: The solubility of the compound of the present invention in common solvents was investigated (25-30° C.), and the results are shown in Table 1. It can be seen from Table 1 that the compound of the present invention has good solubility in all of heptane, isopropyl acetate (i-PrOAc), methyl tert-butyl ether (MTBE) and N,N-dimethylformamide (DMF), and particularly, the solubility in N,N-dimethylformamide is much higher than Comparative Examples.

solubility in DMSO [%] | solubility in MeOH [%] | solubility in DMF [%] | solubility in Heptane [%] | solubility in i-PrOAc [%] | solubility in MTBE [%] | Structure (SMILES)
<1 | <1 | >100 | >50 | >100 | >100 | CCCCCCCCCCCCCOc1cc(C(=O)N(C)CCOc2ccc(C(N)c3ccccc3)cc2)cc(OCCCCCCCCCCCCC)c1OCCCCCCCCCCCCC (stereo not drawn) [DPA-026, 4-(2-(N′-methy-3,4,5-tri(isomeric tridecyloxy)-benzamido)-ethoxy)-benzhydrylamine]
<1 | <1 | >75 | >50 | >75 | >75 | CCCCCCCCCCCCCOc1ccc(CN(CCOCCOc2ccc(C(N)c3ccccc3)cc2)C(C)=O)cc1OCCCCCCCCCCCCC (stereo not drawn) [DPA-027]
<1 | <1 | >100 | >100 | >100 | >100 | CCCCCCCCCCCCCOc1ccc(CN(CCOCCOc2ccc(C(N)c3ccccc3)cc2)C(=O)CC(C)CC(C)(C)C)cc1OCCCCCCCCCCCCC (stereo not drawn) [DPA-028]
<1 | <1 | >100 | >100 | >100 | >100 | CCCCCCCCCCCCCOc1ccc(CN(CCOCCOc2ccc(C(N)c3ccccc3)cc2)C(=O)c2cc(OCCCCCCCCC)c(OCCCCCCCCC)c(OCCCCCCCCC)c2)cc1OCCCCCCCCCCCCC (stereo not drawn) [DPA-029]
<1 | <1 | >40 | >40 | >40 | >40 | CCCCCCCCCCCCCOc1ccc(CN(CC(=O)NCCOCCOc2ccc(C(N)c3ccccc3)cc2)C(=O)CC(C)CC(C)(C)C)cc1OCCCCCCCCCCCCC (stereo not drawn) [DPA-030, 4-(2-(2-(2-(N″-3,4-di(isomeric tridecyloxy)-benzyl)-isononanoamido)-acetamido)-ethoxy)-ethoxy-benzhydrylamine]
<1 | <1 | >100 | >50 | >100 | >100 | CCCCCCCCCCCCCOc1ccc(CN(CC(=O)NCCOCCOc2ccc(C(N)c3ccccc3)cc2)C(=O)c2cc(OCCCCCCCCC)c(OCCCCCCCCC)c(OCCCCCCCCC)c2)cc1OCCCCCCCCCCCCC (stereo not drawn) [DPA-031, 4-(2-(2-(2-(N″-3,4-di(isomeric tridecyloxy)-benzyl)-3,4,5-tri(isononyloxy)-benzamido)-acetamido)-ethoxy)-ethoxy-benzhydrylamine]
<1 | <1 | >40 | >10 | >10 | >10 | CCCCCCCCCCCCCOc1cc(C(=O)NCCOCCOc2ccc(C(O)(c3ccccc3)c3ccccc3)cc2)cc(OCCCCCCCCCCCCC)c1OCCCCCCCCCCCCC [DPA-032]
<1 | <1 | >40 | >30 | >50 | >50 | CCCCCCCCCCCCCOc1cc(C(=O)NCCOCCOc2ccc(C(O)(c3ccccc3)c3ccccc3Cl)cc2)cc(OCCCCCCCCCCCCC)c1OCCCCCCCCCCCCC (stereo not drawn) [DPA-033]
<1 | <1 | >40 | >30 | >50 | >50 | CCCCCCCCCCCCCOc1cc(C(=O)NCCOCCOc2ccc(C(O)(c3ccccc3)c3ccc(Cl)cc3)cc2)cc(OCCCCCCCCCCCCC)c1OCCCCCCCCCCCCC (stereo not drawn) [DPA-034]
<1 | <1 | >0.1 | >100 | >100 | >100 | CC(C)CCCC(C)CCCC(C)CCCC(C)CCOc1cc(COc2ccc(C(N)c3ccccc3)cc2)cc(OCCC(C)CCCC(C)CCCC(C)CCCC(C)C)c1OCCC(C)CCCC(C)CCCC(C)CCCC(C)C (stereo not drawn) [REF-002, reference compound]

Structure (SMILES) | solubility in DMSO [%] | solubility in MeOH [%] | solubility in DMF [%] | solubility in Heptane [%] | solubility in i-PrOAc [%] | solubility in MTBE [%]
CC(C)CCCC(C)CCCC(C)CCCC(C)CCOc1ccc(C(N)c2ccc(OCCC(C)CCCC(C)CCCC(C)CCCC(C)C)cc2)cc1 (stereo not drawn) [REF-001, 4,4′-di(dihydrophytanyloxy)-benzhydrylamine, reference compound] | <1 | <1 | >0.1 | >50 | >100 | >100
